# Assay results: paper PMC6501426 (Clinical Epigenetics, 2019)
# Tests used:
# KG-1 = experiment: Cell viability, trypan blue exclusion; assay type: cell-based, human
# Protocol: (§1) U-937 (acute myeloid leukemia), RAJI (Burkitt’s lymphoma), PC-3 (prostate cancer), and MDA-MB-231 (breast cancer) cell lines were obtained from the Deutsche Sammlung für Mikroorganismen and Zellkulturen (DSZM, Braunschweig, Germany) and were cultured in RPMI 1640 (Lonza, Verviers, Belgium) complemented with 10% FBS (Lonza, Verviers, Belgium) and 1% antibiotic-antimycotic (Lonza). RPMI1788 (normal B lymphocytes) and KG-1 (acute myeloid leukemia) cell lines were obtained from the American Type Culture Collection (ATCC) and were maintained in RPMI 1640 complemented with 20% FBS and IMDM complemented with 10% FBS, respectively. Cell lines were treated with compounds at the indicated concentrations in the exponential growth phase.
# (§2) Proliferation and viability of U-937, KG-1, RAJI, PC-3, MDA-MB-231, RPMI1788, PBMCs, and PHA_PBMCs were assessed by trypan blue exclusion assays at the indicated time points. Nuclear morphology changes associated with apoptosis and necrosis were evaluated by fluorescence microscopy after Hoechst and propidium iodide (PI) staining as previously described.
# (§3) IC50 values of compounds against cellular viability were determined by using nonlinear regression fitting curves with GraphPad Prism 8 or CalcuSyn software The t test used for statistical analyses was performed with GraphPad Prism 8. All the tests were one-tailed, and a p value < 0.05 was considered statistically significant.
# MDA-MB-231 = experiment: Cell viability, trypan blue exclusion; assay type: cell-based, human
# Protocol: as §1, §2, §3
# PC-3 = experiment: Cell viability, trypan blue exclusion; assay type: cell-based, human
# Protocol: as §1, §2, §3
# RAJI = experiment: Cell viability, trypan blue exclusion; assay type: cell-based, human
# Protocol: as §1, §2, §3
# U-937 = experiment: Cell viability, trypan blue exclusion; assay type: cell-based, human
# Protocol: as §1, §2, §3
# [1] = test system: RPMI1788 (normal B lymphocytes); experiment: Cell viability, trypan blue exclusion; assay type: cell-based; conditions: Homo sapiens, RPMI-1788; 48 h of treatment; normal cells; read-out: IC50 ± SD, cell viability, RPMI1788
# Protocol: as §1, §2
# IC50 values of compounds against cellular viability were determined by using nonlinear regression fitting curves with GraphPad Prism 8 or CalcuSyn software The t test used for statistical analyses was performed with GraphPad Prism 8. […]
# [2] = test system: DNMT3A protein level in HCT116 cells; experiment: Western blot of DNMT3A protein in HCT116; assay type: cell-based, human; conditions: 24 h; MC3353 effect detectable at 0.1 μM
# Text: Cells were lysed in Laemmli buffer; subsequently, the proteins were resolved by sodium dodecyl sulfate-polyacrylamide gel electrophoresis and transferred to a 0.45-μm nitrocellulose membrane (Bio-Rad Laboratories, Hercules, CA). The following primary antibodies were used for immunoblotting: α-E-cadherin (BD Transduction Laboratories, Franklin Lakes, NJ), α-MMP2 (Abcam), α-DNMT3a (Santa Cruz Biotechnologies, Dallas, TX), and α-GAPDH (Millipore Corp., Bedford, MA), used as a loading control. The immune complexes were detected with horseradish peroxidase-conjugated species-specific secondary antiserum (Bio-Rad Laboratories, Milan, Italy) then by enhanced chemiluminescence reaction (Bio-Rad Laboratories, Milan, Italy). Densitometric analysis of protein expression was performed by using the Fiji ImageJ image processing package.
# GAPDH was used as a loading control. Blots are representative of two independent experiments
# [3] = test system: ALP expression in Saos-2 cells; experiment: Saos-2 osteoblast differentiation, RT-qPCR; assay type: cell-based, human; conditions: 0.5 and 1 μM, only at the most extended exposure (day 21)
# Protocol: (§4) Four days after seeding, Saos-2 cells were exposed to specific osteogenic medium (IMDM supplemented with 2% FBS, 5 mM β-glycerophosphate, and 50 μg/mL ascorbic acid, Sigma-Aldrich, Milan, Italy) without (control) or with MC3353 (0.5–1 μM) or DAC (0.1–0.5 μM) and maintained in differentiating conditions for up to 21 days. The medium was renewed every 4 days, and the cells were harvested at various time points to collect total RNA and verify bone mineralization. Specific osteoblastic markers were evaluated by quantitative real-time PCR (RT-qPCR) as previously described. The primers or assays (Applied Biosystems, Foster City, CA, USA) used are as follows: GAPDH (forward: 5′-[…]-3′, reverse: 5′-[…]-3′ and probe: 5′-[…]-3′), OCN (forward: 5′-[…]-3′, reverse: 5′-[…]-3′), ALP (Hs01029144_m1), and COL1A2 (Hs01028970_m1). Amplification reactions were performed using a ViiA7™ Real-Time PCR System (Life Technologies, Carlsbad, CA, USA). To visualize bone mineralization (osteoblastic differentiation) after 7–21 days of MC3353 or DAC treatment, the plates were stained with 40 mM Alizarin red stain (ARS, Sigma-Aldrich, Milan, Italy). ARS staining was visualized with an ECLIPSE 90i microscope (Nikon, Minato, Tokyo, Japan) equipped with Plan fluor 10× NA 0.3. Images were acquired with an autocapture setting using a digital color camera (Nikon DS5 MC) and NIS-Elements AR3.10 software (Nikon, Minato, Tokyo, Japan).
# [4] = test system: COL1A2 expression in Saos-2 cells; experiment: Saos-2 osteoblast differentiation, RT-qPCR; assay type: cell-based, human; conditions: 0.5 and 1 μM, along 3 weeks, osteogenic medium
# Protocol: as §4
# [5] = test system: OCN expression in Saos-2 cells; experiment: Saos-2 osteoblast differentiation, RT-qPCR; assay type: cell-based, human; conditions: 0.5 and 1 μM, along 3 weeks, osteogenic medium
# Protocol: as §4
# Abl kinase (h) = molecular target: T1, Abl kinase (h) (Homo sapiens, UniProt P00519); experiment: Kinase panel (ExpresS Diversity Kinase Profile, Cerep); assay type: biochemical; conditions: read-out: % inhibition at 10 µM by MC3353, Abl kinase (h), ATP 10 μM
# T1 construct: purchased Eurofins Cerep
# T1 sequence (P00519 whole entry): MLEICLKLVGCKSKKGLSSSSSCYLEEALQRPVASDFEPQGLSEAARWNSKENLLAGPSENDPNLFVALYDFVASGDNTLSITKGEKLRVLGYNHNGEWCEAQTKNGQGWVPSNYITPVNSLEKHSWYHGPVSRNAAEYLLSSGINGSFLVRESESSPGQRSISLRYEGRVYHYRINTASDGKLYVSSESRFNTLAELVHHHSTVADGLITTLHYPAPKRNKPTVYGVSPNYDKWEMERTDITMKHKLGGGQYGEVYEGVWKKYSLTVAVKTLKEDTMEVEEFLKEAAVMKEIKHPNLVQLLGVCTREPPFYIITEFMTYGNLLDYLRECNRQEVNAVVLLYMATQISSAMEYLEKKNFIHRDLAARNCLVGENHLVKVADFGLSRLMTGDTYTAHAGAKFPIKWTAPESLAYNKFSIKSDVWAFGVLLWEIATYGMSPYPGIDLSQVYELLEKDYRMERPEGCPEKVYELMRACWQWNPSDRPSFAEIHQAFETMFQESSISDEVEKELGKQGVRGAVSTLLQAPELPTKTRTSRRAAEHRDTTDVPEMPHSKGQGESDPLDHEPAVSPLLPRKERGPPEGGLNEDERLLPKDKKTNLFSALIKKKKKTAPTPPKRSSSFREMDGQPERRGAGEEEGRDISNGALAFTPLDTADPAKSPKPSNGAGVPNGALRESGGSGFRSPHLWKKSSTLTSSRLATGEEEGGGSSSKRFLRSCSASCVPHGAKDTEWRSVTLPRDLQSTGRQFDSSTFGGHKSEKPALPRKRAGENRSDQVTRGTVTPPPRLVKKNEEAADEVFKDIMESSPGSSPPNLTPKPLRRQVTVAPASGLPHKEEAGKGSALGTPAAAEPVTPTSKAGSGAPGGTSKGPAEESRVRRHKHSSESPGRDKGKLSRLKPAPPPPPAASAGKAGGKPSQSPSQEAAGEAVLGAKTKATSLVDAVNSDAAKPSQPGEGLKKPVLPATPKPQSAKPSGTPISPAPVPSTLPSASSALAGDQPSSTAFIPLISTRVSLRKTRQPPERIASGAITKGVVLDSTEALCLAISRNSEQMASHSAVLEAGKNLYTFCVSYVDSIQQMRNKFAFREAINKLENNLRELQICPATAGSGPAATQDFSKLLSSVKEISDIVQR
# Protocol: The test compound, reference compound or water (control) were mixed with the enzyme (for the exact amount see table below) in the appropriate buffer. Thereafter, the reaction was initiated by adding the required amount of the appropriate substrate and of ATP, and the mixture is incubated at room temperature (variable reaction time, see table below). For control basal measurements, the enzyme was omitted from the reaction mixture. Following incubation, the reaction was stopped by adding 13 mM EDTA. After 5 min, the proper antibody labelled with europium chelate was added. After 60 more min, the fluorescence transfer was measured at λex=337 nm, λem=620 nm and λem=665 nm using a microplate reader (Envision, Perkin Elmer). The enzyme activity was determined by dividing the signal measured at 665 nm by that measured at 620 nm (ratio). The results are expressed as a percent inhibition of the control enzyme activity.
smiles,measurement,setting,value
"O=C(Nc1ccc(NC(=O)c2ccc(Nc3ccnc4ccccc34)cc2)cc1)OCc1ccccc1 [MC3353, Benzyl (4-(4-(quinolin-4-ylamino)benzamido)phenyl)carbamate]","Selectivity index (IC50 PBMCs/IC50 cell line), KG-1",KG-1; 48 h,(26.2)
same,"Selectivity index (IC50 PHA_PBMCs/IC50 cell line), KG-1",KG-1; 48 h,(13.5)
same,"Selectivity index (IC50 RPMI1788/IC50 cell line), KG-1",KG-1; 48 h,(7.2)
same,IC50,"KG-1; Homo sapiens, KG-1, 48 h of treatment, read-out: IC50 ± SD, cell viability, KG-1",300 nM
same,"Selectivity index (IC50 PBMCs/IC50 cell line), MDA-MB-231",MDA-MB-231; 48 h,(9.7)
same,"Selectivity index (IC50 PHA_PBMCs/IC50 cell line), MDA-MB-231",MDA-MB-231; 48 h,(5.0)
same,"Selectivity index (IC50 RPMI1788/IC50 cell line), MDA-MB-231",MDA-MB-231; 48 h,(2.6)
same,IC50,"MDA-MB-231; Homo sapiens, MDA-MB-231, 48 h of treatment, read-out: IC50 ± SD, cell viability, MDA-MB-231",900 ± 700 nM
same,"Selectivity index (IC50 PBMCs/IC50 cell line), PC-3",PC-3; 48 h,(9.8)
same,"Selectivity index (IC50 PHA_PBMCs/IC50 cell line), PC-3",PC-3; 48 h,(5.1)
same,"Selectivity index (IC50 RPMI1788/IC50 cell line), PC-3",PC-3; 48 h,(2.7)
same,IC50,"PC-3; Homo sapiens, PC-3, 48 h of treatment, read-out: IC50 ± SD, cell viability, PC-3",900 ± 400 nM
same,"Selectivity index (IC50 PBMCs/IC50 cell line), RAJI",RAJI; 48 h,(23.1)
same,"Selectivity index (IC50 PHA_PBMCs/IC50 cell line), RAJI",RAJI; 48 h,(11.9)
same,"Selectivity index (IC50 RPMI1788/IC50 cell line), RAJI",RAJI; 48 h,(6.3)
same,IC50,"RAJI; Homo sapiens, Raji, 48 h of treatment, read-out: IC50 ± SD, cell viability, RAJI",400 nM
same,"Selectivity index (IC50 PBMCs/IC50 cell line), U-937",U-937; 48 h,(24.0)
same,"Selectivity index (IC50 PHA_PBMCs/IC50 cell line), U-937",U-937; 48 h,(12.4)
same,"Selectivity index (IC50 RPMI1788/IC50 cell line), U-937",U-937; 48 h,(6.6)
same,IC50,"U-937; Homo sapiens, U-937, 48 h of treatment, read-out: IC50 ± SD, cell viability, U-937",400 nM
same,IC50,[1],2400 ± 200 nM
same,"DNMT3A protein expression level (western blot), HCT116",[2],DNMT3A protein downregulation was observed
same,"ALP expression, Saos-2",[3],weak induction of ALP expression
same,"COL1A2 expression, Saos-2",[4],dose-dependently decreased COL1A2 expression
same,"OCN expression, Saos-2",[5],increased OCN expression
same,inhibition at 10 µM,Abl kinase (h),0%
